Experiment [1] deals with T1, Trace amine-associated receptor 1 (Homo sapiens) (UniProt Q96RJ0).
T1 sequence (whole entry): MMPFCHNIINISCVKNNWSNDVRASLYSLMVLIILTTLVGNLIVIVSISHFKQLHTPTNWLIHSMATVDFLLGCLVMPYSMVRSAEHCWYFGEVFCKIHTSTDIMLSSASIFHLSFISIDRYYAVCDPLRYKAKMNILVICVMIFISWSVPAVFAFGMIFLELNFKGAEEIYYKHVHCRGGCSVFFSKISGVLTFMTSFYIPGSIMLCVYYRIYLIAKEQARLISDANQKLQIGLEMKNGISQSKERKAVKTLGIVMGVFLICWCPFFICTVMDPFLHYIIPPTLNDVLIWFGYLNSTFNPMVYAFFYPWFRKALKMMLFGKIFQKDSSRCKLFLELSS
Briefly: Agonist activity at human TAAR1 expressed in HEK293 cells assessed as cAMP accumulation at 10 uM after 20 mins by BRET assay relative to beta-PEA. The format is functional, cell-based. Background: Cyclic AMP is a second messenger, typically raised through Gs and lowered through Gi signalling.

The target in experiment [2] is Trace amine-associated receptor 1 (Mus musculus) (UniProt Q923Y8). In words: Agonist activity at mouse TAAR1 expressed in HEK293 cells assessed as cAMP accumulation at 10 uM after 20 mins by BRET assay relative to beta-PEA. It is filed as functional, cell-based.
The target in experiment [3] is T2, Trace amine-associated receptor 5 (Mus musculus, UniProt Q5QD14).
T2 sequence (Q5QD14 whole entry): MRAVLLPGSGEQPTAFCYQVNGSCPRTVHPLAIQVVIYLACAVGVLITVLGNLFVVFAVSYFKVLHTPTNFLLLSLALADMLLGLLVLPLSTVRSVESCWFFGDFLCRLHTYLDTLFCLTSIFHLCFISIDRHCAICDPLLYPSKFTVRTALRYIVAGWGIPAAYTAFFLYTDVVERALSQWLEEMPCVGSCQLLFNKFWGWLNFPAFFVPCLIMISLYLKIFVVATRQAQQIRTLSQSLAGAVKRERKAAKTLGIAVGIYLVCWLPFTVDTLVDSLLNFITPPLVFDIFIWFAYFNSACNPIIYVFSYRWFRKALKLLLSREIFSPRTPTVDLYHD
In words: Agonist activity at mouse TAAR5 expressed in HEK293 cells assessed as cAMP accumulation after 20 mins by BRET assay. The format is functional, cell-based.

Experiment [4] addresses Trace amine-associated receptor 1 (Mus musculus, UniProt Q923Y8). In words: Agonist activity at mouse TAAR1 expressed in HEK293 cells assessed as cAMP accumulation after 20 mins by BRET assay. The format is functional, cell-based.
In experiment [5] the target is T3, Trace amine-associated receptor 1 (Homo sapiens, UniProt Q96RJ0).
T3 sequence (Q96RJ0 whole entry): T1 sequence (whole entry)
In words: Agonist activity at human TAAR1 expressed in HEK293 cells assessed as cAMP accumulation after 20 mins by BRET assay. The format is functional, cell-based.

Experiment [6] in a line: Selectivity ratio of EC50 for human TAAR1 expressed in HEK293 cells to EC50 for mouse TAAR1 expressed in HEK293 cells. The format is cell-based.
Experiment [7] has as its target T3, Trace amine-associated receptor 1. Briefly: […] of full length recombinant human N-terminal HA-tagged/C-terminal FLAG-tagged TAAR1 expressed in CHOK1 cells assessed as increase in cAMP accumulation by AlphaScreen assay. The format is functional, cell-based.

Molecules are shown by their SMILES. Active and inactive are the calls of the source. No cut-off for these calls is given here.

By EC50 is commonly meant the concentration needed to bring the measured effect to its halfway point. A word on the Emax: it is the size of the effect at its maximum, as opposed to the concentration needed.

Chain of Trace amine-associated receptor 1 (Mus musculus) (Q923Y8 whole entry): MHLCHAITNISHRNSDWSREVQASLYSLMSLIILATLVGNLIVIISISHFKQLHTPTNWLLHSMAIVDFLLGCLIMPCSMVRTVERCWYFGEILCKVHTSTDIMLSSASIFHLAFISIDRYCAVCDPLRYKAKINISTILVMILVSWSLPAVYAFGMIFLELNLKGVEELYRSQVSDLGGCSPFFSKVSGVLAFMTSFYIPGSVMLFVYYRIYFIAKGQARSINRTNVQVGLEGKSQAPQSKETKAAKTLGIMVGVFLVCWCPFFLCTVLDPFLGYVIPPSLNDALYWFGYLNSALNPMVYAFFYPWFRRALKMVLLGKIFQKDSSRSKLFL
Chain of Trace amine-associated receptor 1 (Mus musculus, UniProt Q923Y8) (Q923Y8 whole entry): as above

Turning to `COc1cc(Cc2cnc(N)nc2N)cc(OC)c1OC` [TRIMETHOPRIM], the outcome in experiment [1] and in experiment [2] was inactive. Further, in experiment [3], the EC50 was greater than 10 µM.

For the compound `NC(N)=N/C(N)=N/c1cccc(F)c1`, the outcome in experiment [1] and in experiment [2] was inactive. In addition, the 50% effective concentration (EC50) in experiment [3] is greater than 10 µM.

As for `COc1ccc(/N=C(\N)N=C(N)N)cc1`, the outcome in experiment [1] and in experiment [2] was inactive. Also, in experiment [3], the EC50 was greater than 10 µM.

Regarding `N=C(N)NC(=N)Nc1cccc(Cl)c1`, the result in experiment [1] and in experiment [2] was inactive. Besides, the EC50 in experiment [3] was greater than 10 µM.

As for `NC(N)=N/C(N)=N/C1CCCC1`, the result in experiment [1] and in experiment [2] was inactive. Also, the EC50 in experiment [3] is greater than 10 µM.

With `NC(N)=N/C(N)=N/Cc1ccccc1Cl`, the Emax in experiment [1] and in experiment [2] was greater than 85% in each case. Also, the EC50 in experiment [4] was 0.41 µM; in experiment [5], 3 µM; in experiment [3], greater than 10 µM. Besides, in experiment [6], the Ratio EC50 was 7.31.

In the case of `N=C(N)NC(=N)Nc1ccc(Cl)cc1` [4-CHLOROPHENYLBIGUANIDE], the Emax in experiment [1] and in experiment [2] was greater than 85% in each case. The values for the EC50 in experiment [4], in experiment [5] and in experiment [3] were 2.1 µM, greater than 10 µM and greater than 10 µM, respectively. In addition, the Ratio EC50 in experiment [6] was greater than 4.76.

`N=C(N)NC(=N)NCc1ccccc1`: the maximal effect (Emax) in experiment [1] and in experiment [2] was greater than 85% each time. Besides, the EC50 in experiment [4] was 0.78 µM; in experiment [5] it was greater than 10 µM; in experiment [3] it was greater than 10 µM. Further, the Ratio EC50 in experiment [6] is greater than 12.8.

Regarding `NC(N)=N/C(N)=N/Cc1cccc(F)c1`, the Emax in experiment [1] and in experiment [2] was greater than 85% each time. Also, the concentration for a half-maximal effect (EC50) in experiment [4] was 0.54 µM; in experiment [5], 1.6 µM; in experiment [3] it was greater than 10 µM. Besides, the Ratio EC50 in experiment [6] was found to be 2.96.

Turning to `NC(N)=N/C(N)=N/C1CCCCCC1`, the result in experiment [1] and in experiment [2] was inactive. In addition, the 50% effective concentration (EC50) in experiment [3] is greater than 10 µM.

As to `NC(N)=N/C(N)=N/Cc1cccc(Br)c1`, the Emax in experiment [1] and in experiment [2] was greater than 85% each time. Moreover, the concentration for a half-maximal effect (EC50) in experiment [4] is 1.8 µM; in experiment [5], 4.9 µM; in experiment [3], greater than 10 µM. Also, the Ratio EC50 in experiment [6] amounted to 2.72.

With `N=C(N)NC(=N)NC12CC3CC(CC(C3)C1)C2`, the outcome in experiment [1] and in experiment [2] was inactive. Further, the EC50 in experiment [3] was greater than 10 µM.

`NCCc1ccc(Oc2ccc(O)cc2)c(I)c1`: the concentration for a half-maximal effect (EC50) in experiment [7] turned out to be 1.69 µM.

For the compound `CC1(C)N=C(N)N=C(N)N1c1ccc(Cl)cc1` [CYCLOGUANIL], the outcome in experiment [1] and in experiment [2] was inactive. In addition, the EC50 in experiment [3] is greater than 10 µM.

Take `CCc1nc(N)nc(N)c1-c1ccc(Cl)cc1` [PYRIMETHAMINE]: the outcome in experiment [1] and in experiment [2] was inactive. The EC50 in experiment [3] is greater than 10 µM.

Regarding `NC(N)=N/C(N)=N/Cc1ccc(Cl)c(Cl)c1`, the Emax in experiment [1] and in experiment [2] was greater than 85% each time. Further, the EC50 in experiment [4] was 0.036 µM; in experiment [5], 1.2 µM; in experiment [3] it was greater than 10 µM. Moreover, the Ratio EC50 in experiment [6] amounted to 33.3.

For the compound `CC(C)NC(=N)NC(=N)Nc1ccc(Cl)cc1`, the Emax in experiment [1] and in experiment [2] was greater than 85% throughout. Also, the Ratio EC50 in experiment [6] was greater than 1.85.

As for `NC(N)=N/C(N)=N/Cc1cccc(Cl)c1`, the Emax in experiment [1] and in experiment [2] was greater than 85% each time. Further, the EC50 in experiment [4] is 0.097 µM; in experiment [5] it was 7 µM; in experiment [3] it was greater than 10 µM. In addition, the Ratio EC50 in experiment [6] was determined as 72.2.

For the compound `NC(N)=N/C(N)=N/c1ccc([N+](=O)[O-])cc1`, the outcome in experiment [1] and in experiment [2] was inactive. For the same compound, the concentration for a half-maximal effect (EC50) in experiment [3] was greater than 10 µM.

On to `N=C(N)/N=C(\N)N1CCOCC1` [MOROXYDINE], for which the 50% effective concentration (EC50) in experiment [3] is greater than 10 µM.

Regarding `NC(N)=N/C(N)=N/Cc1ccc(Cl)cc1`, the Emax in experiment [1] and in experiment [2] was greater than 85% in each case. Besides, the EC50 is 0.78 µM in experiment [4], 1.8 µM in experiment [5] and greater than 10 µM in experiment [3]. Also, in experiment [6], the Ratio EC50 is 2.31.

Consider `N=C(N)NC(=N)Nc1ccccc1` [PHENYL BIGUANIDE], for which the result in experiment [1] and in experiment [2] was inactive. Also, the EC50 in experiment [3] is greater than 10 µM.

Regarding `COc1ccc(CNC(=N)NC(=N)N)cc1`, the outcome in experiment [1] and in experiment [2] was inactive. Also, the 50% effective concentration (EC50) in experiment [3] was greater than 10 µM.

For the compound `N=C(N)NC(=N)Nc1ccccc1Cl`, the Emax in experiment [1] and in experiment [2] was greater than 85% each time. The EC50 is 0.41 µM in experiment [4], 1 µM in experiment [5] and greater than 10 µM in experiment [3]. For the same compound, in experiment [6], the Ratio EC50 worked out at 2.44.

Turning to `[H]/N=C(\N/C(=N/[H])Nc1ccc(Cl)cc1)NC(C)C` [PROGUANIL], the 50% effective concentration (EC50) in experiment [4] is 5.4 µM; in experiment [5], greater than 10 µM; in experiment [3], greater than 10 µM.

As to `N=C(N)NC(=N)Nc1ccc(Cl)c(Cl)c1`, the outcome in experiment [1] and in experiment [2] was inactive. For the same compound, the EC50 in experiment [3] is greater than 10 µM.

Take `COc1ccc(C/N=C(\N)N=C(N)N)cc1OC`: the result in experiment [1] and in experiment [2] was inactive. In addition, in experiment [3], the EC50 is greater than 10 µM.

With `Cc1ccc(NC(=N)N=C(N)N)cc1`, the Emax in experiment [1] and in experiment [2] was greater than 85% throughout. Also, the 50% effective concentration (EC50) in experiment [4] is 1.7 µM; in experiment [5], greater than 10 µM; in experiment [3], greater than 10 µM. Moreover, the Ratio EC50 in experiment [6] was greater than 5.88.

For the compound `N=C(N)NC(=N)N1CCOCC1`, the outcome in experiment [1] and in experiment [2] was inactive.

For `NC1=NC2(CCCCC2)N(c2ccc(Cl)cc2)C(N)=N1`, the outcome in experiment [1] and in experiment [2] was inactive. Moreover, the EC50 in experiment [3] is greater than 10 µM.

The values above are taken from ChEMBL document CHEMBL3992498, “Novel biguanide-based derivatives scouted as TAAR1 agonists: Synthesis, biological evaluation, ADME prediction and molecular docking studies” (Eur J Med Chem, 2017).
